How the values were obtained:
5HT2A sensor [1] = format: cell-based
5HT2A sensor [2] = format: cell-based; remark: listed apart in the source
mice = experiment: Head-twitch response (HTR) in mice; format: in vivo
Protocol: Head twitch response (HTR) experiments. C57BL/6J Mice (9-10 weeks old) are housed following an IACUC approved protocol. The mice are habituated in the test cage for at least 30 min, injected intraperitoneally with compound (injection volume 5 ml/kg), returned to the empty test cage, and filmed for 20 minutes. Each video is scored for the number of head-twitches by a trained observer blinded to treatment condition.

rat cortical neurons = experiment: Neurite outgrowth in primary neuronal cultures assay; format: cell-based; design: key: A: Statistically significant mean increase as a percent of DMSO control at 10 μM or less; B: No statistically significant mean increase as a percent of DMSO control at 10 μM or less; settings: 72h, vs DMSO control, 10 μM or less
Source text: Neurite Outgrowth Assay. Neurite Outgrowth in Primary Neuronal Cultures Assay. Changes in the pattern of neurite outgrowth have been implicated in psychiatric and neurodegenerative disorders as well as traumatic injuries. The discovery of new compounds that can positively affect neuritogenesis are important for developing new therapeutics for neurological diseases. Measurement of neurite outgrowth of rat cortical neurons using an automated image-based assay was used to determine the neuroplastic effects of the compounds of the present disclosure. The neurite outgrowth assay was performed at Neurofit SAS (France) as described below.
Pregnant Wistar rats (Janvier; France) were used for the study. They were delivered 6 days before their use. Upon arrival at Neurofit animal facility, they were housed one per cage and maintained in a room with controlled temperature (21-22° C.) and a reversed light-dark cycle (12 h/12h; lights on: 17:30-05:30; lights off: 05:30-17:30) with food and water available ad libitum.
Female Wistar rats of 17 days gestation were killed by cervical dislocation and the fetuses were removed from the uterus. Their brains were placed in ice-cold medium of Leibovitz (L15, Gibco, Fisher bioblock, France). Cortices were dissected and meninges were carefully removed. The cortical neurons were dissociated by trypsinization for 30 min at 37° C. (trypsin-EDTA, Gibco) in presence of 0.1 mg/ml DNAse I (Roche, France). The reaction was stopped by addition of Dulbecco's Modified Eagle Medium (DMEM; Gibco) with 10% of fetal bovine serum (FBS; Gibco). The suspension was triturated with a 10-ml pipette and using a needle syringe 21G and centrifuged at 350×g for 10 min at room temperature. The pellet of dissociated cells was resuspended in a medium consisting of Neurobasal (Gibco) supplemented with 2% B27 supplement (Gibco), 0.5 mM L-Glutamine (Gibco), an antibiotic-antimicotic mixture. Viable cells were counted in a Neubauer cytometer using the trypan blue exclusion test (Sigma). Cells were seeded at a density of 10000 cells per well in 96-well plate (Costar) precoated with poly-L-lysine. Test compound at different concentrations were added to the cultures. Donepezil (positive control) was tested at 250 nM.
After 72h (3 days) of plating, cultures were fixed with paraformaldehyde in PBS (4%, Sigma) for 30 min at 4° C. Then, cells were successively permeabilized with 0.1% Triton X100 for 30 min, saturated with PBS containing 3% of BSA and were incubated 1 h with anti-beta III tubulin antibody (Sigma) at 1/10 000 in PBS containing 0.5% of BSA. Cells were washed three times with PBS containing 0.5% of BSA, and they were incubated 1 h with goat anti-mouse antibody coupled with AF488 (Invitrogen A11001) diluted at 1/1000 in PBS containing 0.5% of BSA. Finally, nuclei were staining with DAPI 1 mg/ml at 1/1000 in PBS containing 0.5% of BSA. After rinsing with PBS, the plate was filmed and neurite networks were examined and analyzed using High-Content Screening (CellInsight, Thermo Scientific). The average number of neurites per neuron and the average total length of neurites per neuron were the main parameters analyzed. Analysis of data was performed using analysis of variance (ANOVA). The Fisher's Protected Least Significant Difference test was used for multiple comparisons. A p value ≤0.05 was considered significant. The software used is StatView 5.0 from SAS Institut.

5-HT2A [3] = target: T1, 5-HT2A (Homo sapiens, UniProt P28223); experiment: Serotonin 5-HT2A in vitro cellular IPOne agonism assay (HTRF); format: cell-based; design: host or cells: CHO-K1; settings: CHO-K1 cells, 60 min
Protocol: (§1) Serotonin 5-HT2AIn Vitro Cellular IPOne Agonism Assay. The 5-HT2AIPOne HTRF assay was performed at Epics Therapeutics S. A. (Belgium, FAST-0505I) using conventional methods. Briefly, CHO—K1 cells expressing human recombinant 5-HT2A receptor grown to mid-log phase in culture media without antibiotics were detached with PBS-EDTA, centrifuged, and resuspended in medium without antibiotics buffer. 20,000 cells were distributed in a 96 well plate and incubated overnight at 37° C. with 5% Co2.
For agonist testing, the medium was removed and 20 μl of assay buffer plus 20 μl of test compound or reference agonist were added in each well. The plate was incubated for 60 min. at 37° C. with 5% CO2.
(§2) After addition of the lysis buffer containing IP1-d2 and anti-IP1 cryptate detection reagents, plates were incubated 1-hour at room temperature, and fluorescence ratios were measured according to the manufacturer specification, with the HTRF kit.

5-HT2A [4] = target: T1, 5-HT2A; experiment: Serotonin 5-HT2A in vitro radioligand binding competition assay ([3H]-DOI); design: purchased Epics Therapeutics S. A. (Belgium), contract assay FAST-0505B; host or cells: membrane extracts; settings: [3H]-DOI competition, membrane extracts; read-out: 5HT2A R[…] ACTIVITY
Protocol: Serotonin 5-HT2AIn Vitro Radioligand Binding Competition Assay. The 5-HT2A radioligand binding competition assay was performed at Epics Therapeutics S. A. (Belgium, FAST-0505B) using conventional methods. Briefly, competition binding is performed in duplicate in the wells of a 96 well plate (Master Block, Greiner, 786201) containing binding buffer (optimized for each receptor), membrane extracts (amount of protein/well optimized for each receptor), radiotracer [3H]-DOI (final concentration optimized for each receptor) and test compound. Nonspecific binding was determined by co-incubation with 200-fold excess of cold competitor. The samples were incubated in a final volume of 0.1 ml at a temperature and for a duration optimized for each receptor and then filtered over filter plates. Filters were washed six times with 0.5 ml of ice-cold washing buffer (optimized for each receptor) and 50 µl of Microscint 20 (Packard) were added in each well. The plates were incubated 15 min on an orbital shaker and then counted with a TopCount™ for 1 min/well.

5-HT2A [5] = target: T1, 5-HT2A; experiment: Serotonin 5-HT2A in vitro cellular IPOne antagonism assay (HTRF); format: cell-based; design: host or cells: CHO-K1; settings: CHO-K1 cells, reference agonist a-Me-5HT
Protocol: as §1, with “Antagonism” for “Agonism”, “FAST-0505I) in antagonism mode” for “FAST-0505I)”
For antagonist testing, a reference agonist a-Me-5HT was added and fluorescence signal monitored for several minutes, followed by addition of 20 μl of assay buffer plus 20 μl of test compound or reference antagonist ketanserin, in each well. The plate was incubated for 60 min. at 37° C. with 5% CO2.
as §2

T1 sequence (P28223 whole entry): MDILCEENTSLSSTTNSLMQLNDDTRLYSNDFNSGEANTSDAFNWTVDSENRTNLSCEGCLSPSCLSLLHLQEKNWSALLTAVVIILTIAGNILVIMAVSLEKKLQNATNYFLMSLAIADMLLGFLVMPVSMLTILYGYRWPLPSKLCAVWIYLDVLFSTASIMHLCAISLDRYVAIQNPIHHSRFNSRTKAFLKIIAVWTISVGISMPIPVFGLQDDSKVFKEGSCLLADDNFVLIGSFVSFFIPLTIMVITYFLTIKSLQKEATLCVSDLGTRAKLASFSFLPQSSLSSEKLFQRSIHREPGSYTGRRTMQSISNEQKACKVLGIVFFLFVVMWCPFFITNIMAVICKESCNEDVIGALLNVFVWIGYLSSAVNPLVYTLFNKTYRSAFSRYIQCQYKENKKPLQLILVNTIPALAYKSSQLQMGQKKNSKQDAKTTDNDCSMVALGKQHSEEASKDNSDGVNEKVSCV

## CCN(CC)C(=O)[C@@H]1C=C2c3cccc4[nH]c(Br)c(c34)C[C@H]2N(C)C1 [BOL148]
5HT2A sensor [1]
  competition with 5-HT in the 5HT2A sensor assay in antagonist mode: can compete with 5HT binding to 5HT2A
5HT2A sensor [2]
  activation of the 5HT2A sensor assay in agonist mode: do not activate the 5HT2A sensor assay in agonist mode

## COc1ccc2[nH]cc(CCN(C)C)c2c1 [Compound 5-MeO-DMT]
mice
  head-twitch response (HTR): robust, dose-dependent head-twitch response
5HT2A sensor [2]
  activation of the 5HT2A sensor assay in agonist mode: activate the 5HT2A sensor assay in agonist mode

## CCN(CC)CCc1c[nH]c2cc(F)ccc12 [Compound 6-F-DET]
5HT2A sensor [1]
  competition with 5-HT in the 5HT2A sensor assay in antagonist mode: can compete with 5HT binding to 5HT2A
5HT2A sensor [2]
  activation of the 5HT2A sensor assay in agonist mode: do not activate the 5HT2A sensor assay in agonist mode

## COc1ccc2c(CCN(C)C)c[nH]c2c1 [Compound 6-MeO-DMT]
5HT2A sensor [1]
  competition with 5-HT in the 5HT2A sensor assay in antagonist mode: compete off 5-HT
mice
  head-twitch response (HTR): does not produce a HTR
5HT2A sensor [2]
  activation of the 5HT2A sensor assay in agonist mode: do not activate the 5HT2A sensor assay in agonist mode

## c1ccc2c3c([nH]c2c1)CCN1CCC[C@H]1C3 [Compound 23, (S)-1,2,3,5,6,7,12,12a-octahydropyrrolo[1′,2′:1,7]azepino[4,5-b]indole]
Rat cortical neurons
  INCREASE IN NEURITE BRANCHING: A
  INCREASE IN NEURITE LENGTH: A
  INCREASE IN NEURITE NUMBER: A
5-HT2A [3]
  EC50: > 10 µM
5-HT2A [4]
  IC50: 0.101 to 1 µM
5-HT2A [5]
  IC50: 0.01 to 0.1 µM

## COc1ccc2c3c([nH]c2c1)CCN1CCC[C@@H]1C3 [Compound 24, (R)-9-methoxy-1,2,3,5,6,7,12,12a-octahydropyrrolo[1′,2′:1,7]azepino[4,5-b]indole]
Rat cortical neurons
  INCREASE IN NEURITE BRANCHING: A
  INCREASE IN NEURITE LENGTH: A
  INCREASE IN NEURITE NUMBER: A
5-HT2A [3]
  EC50: > 10 µM
5-HT2A [4]
  IC50: 1 to 10 µM
5-HT2A [5]
  IC50: 0.101 to 1 µM

## COc1ccc2c3c([nH]c2c1)CCN1CCC[C@H]1C3 [Compound 25, (S)-9-methoxy-1,2,3,5,6,7,12,12a-octahydropyrrolo[1′,2′:1,7]azepino[4,5-b]indole]
Rat cortical neurons
  INCREASE IN NEURITE BRANCHING: A
  INCREASE IN NEURITE LENGTH: A
  INCREASE IN NEURITE NUMBER: A
5-HT2A [3]
  EC50: > 10 µM
5-HT2A [4]
  IC50: > 10 µM
5-HT2A [5]
  IC50: 0.101 to 1 µM

## COc1cccc2[nH]c3c(c12)C[C@H]1CCCN1CC3 [Compound 26, (R)-11-methoxy-1,2,3,5,6,7,12,12a-octahydropyrrolo[1′,2′:1,7]azepino[4,5-b]indole]
Rat cortical neurons
  INCREASE IN NEURITE BRANCHING: A
  INCREASE IN NEURITE LENGTH: A
  INCREASE IN NEURITE NUMBER: A
5-HT2A [3]
  EC50: 0.01 to 0.1 µM
5-HT2A [4]
  IC50: 0.101 to 1 µM
5-HT2A [5]
  IC50: < 0.01 µM

## COc1cccc2[nH]c3c(c12)C[C@@H]1CCCN1CC3 [Compound 27, (S)-11-methoxy-1,2,3,5,6,7,12,12a-octahydropyrrolo[1′,2′:1,7]azepino[4,5-b]indole]
Rat cortical neurons
  INCREASE IN NEURITE BRANCHING: A
  INCREASE IN NEURITE LENGTH: A
  INCREASE IN NEURITE NUMBER: A
5-HT2A [3]
  EC50: 0.01 to 0.1 µM
5-HT2A [4]
  IC50: 0.01 to 0.1 µM
5-HT2A [5]
  IC50: 0.01 to 0.1 µM

## FC(F)(F)c1cccc2[nH]c3c(c12)CC1CCCN1CC3 (stereo not drawn) [Compound 28, 11-(trifluoromethyl)-1,2,3,5,6,7,12,12a-octahydropyrrolo[1′,2′:1,7]azepino[4,5-b]indole]
Rat cortical neurons
  INCREASE IN NEURITE BRANCHING: A
  INCREASE IN NEURITE LENGTH: A
  INCREASE IN NEURITE NUMBER: A
5-HT2A [3]
  EC50: 1 to 10 µM
5-HT2A [4]
  IC50: 0.101 to 1 µM
5-HT2A [5]
  IC50: 0.01 to 0.1 µM

## CN(C)CCc1c[nH]c2ccccc12 [DMT, N,N-dimethyltryptamine]
5HT2A sensor [2]
  activation of the 5HT2A sensor assay in agonist mode: activate the 5HT2A sensor assay in agonist mode

## COc1cc(CC(C)N)c(OC)cc1I (stereo not drawn) [DOI]
5HT2A sensor [2]
  activation of the 5HT2A sensor assay in agonist mode: activate the 5HT2A sensor assay in agonist mode

## O=C(c1ccc(F)cc1)C1CCN(CCn2c(=O)[nH]c3ccccc3c2=O)CC1 [Ketanserin]
5HT2A sensor [1]
  competition with 5-HT in the 5HT2A sensor assay in antagonist mode: can compete with 5HT binding to 5HT2A
5HT2A sensor [2]
  activation of the 5HT2A sensor assay in agonist mode: do not activate the 5HT2A sensor assay in agonist mode

## CN[C@H](C)Cc1ccc2c(c1)OCO2 [L-MDMA]
5HT2A sensor [2]
  activation of the 5HT2A sensor assay in agonist mode: do not activate the 5HT2A sensor assay in agonist mode

## CCN(CC)C(=O)[C@@H]1C=C2c3cccc4[nH]cc(c34)C[C@H]2N(C)C1 [LSD]
5HT2A sensor [2]
  activation of the 5HT2A sensor assay in agonist mode: activate the 5HT2A sensor assay in agonist mode

— patent US20260176253A1 (priority 2021, published 2026)
